Measurements published in patent publication US7303739B2, “Prodrugs for liver specific drug delivery” (Metabasis Therapeutics, Inc., priority 1999, dated 2007).

Key:
[1] = target: T1, recombinant human P450-isozyme, CYP3A4 (Homo sapiens, UniProt P08684); assay: Activation of Compound 1.1 in vitro by recombinant CYP3A4; assay type: in vitro ADME; conditions: 1 mg/ml Baculosomes, 100 μM Compound 1.1, 2 mM NADPH, 37° C.
T1 construct: purchased Panvera Corp., Madison, Wis; host or cells: baculovirus-infected insect cells (microsomes, Baculosomes)
Method: Activation of Compound 1.1 was evaluated in reactions containing microsomes from baculovirus-infected insect cells co-expressing recombinant human P450-isozyme, CYP3A4, and cytochrome P450 reductase (Panvera Corp., Madison, Wis.).
Methods: Reaction mixtures (0.5 ml @ 37° C.) consisted of 1 mg/ml Baculosomes, 100 μM Compound 1.1, 2 mM NADPH and 100 mM KH2PO4 buffer. Reactions were incubated for 30 minutes in an Eppendorf Thermomixer 5436 at 37° C., and reciprocal shaking speed setting 6. 100 μl aliquots were collected at 0, 10, 20 and 30 minutes and quenched with 1.5 volumes of methanol. These extracts were spun for 10 minutes at 14,000 rpm in an Eppendorf microfuge and the supernatants were lyophilized to remove the methanol. The dried supernatant pellets were resuspended in 100 μl 20 mM potassium phosphate buffer, pH 6.3, clarified by centrifugation, and analyzed by HPLC as described in Example A.

[2] = system: parent cell line (AHH-1 TK+/−) which does not express CYP3A4; assay: Compound 1.1 activity in parent lymphoblastoid cells not expressing CYP3A4 (colony forming ability); conditions: non-CYP3A4 expressing cells, 24 hours exposure, 14 days culture
Method: Following drug exposure, cells are diluted to 10 cells/ml and cultured for 14 days to determine colony forming ability.

[3] = Liver delivery of Etoposide following administration to rat; assay type: in vivo
Method: At appropriate time points following drug administration, animals are lightly anesthetized with halothane. The peritoneal cavity is then opened and a blood sample is obtained from the abdominal vena cava and the liver freeze-clamped and excised.
The blood samples are heparinized and plasma is prepared. Plasma samples (100 μL) are mixed with perchloric acid or methanol, vortexed, and then clarified by centrifugation. The supernatants are analyzed for Etoposide by HPLC as described in Example A.
Livers are immediately homogenized in 3 volumes of 10% perchloric acid (w/w), and the extracts clarified by centrifugation at 2500×g (5 minutes). The resulting supernatants are removed and neutralized with 0.3 volumes of 3M KOH/3M KHCO3. The neutralized liver extracts are then spun in an Eppendorf microfuge at 10,000 rpm (20 minutes, 4° C.). The supernatants are analyzed for Etoposide as described above.

[4] = Tissue homogenate activity (activation in homogenates from various tissues); assay type: in vitro ADME, rat; conditions: 100 μM, 1 hour
Method: Compound 1.1 is tested for activation in homogenates from various tissues to assess the specificity-of liver activation.
Methods: Rats are anesthetized under halothane and tissues including liver, kidney, brain, heart, stomach, spleen, muscle, lung, and testis are excised and frozen in liquid nitrogen. Tissues are then homogenized in 1 to 3 volumes of 50 mM Tris-HCl, 154 mM KCL, 1 mM EGTA, pH 7.4. The homogenates are centrifuged at 10,000 rpm and 4° C. for 30 minutes and the supernatant recovered. Liver cytosol is prepared by centrifuging the crude liver extract for 1 hour at 40,000 rpm and […]. Reaction mixtures consist of 50 mM KH2PO4 pH 7.4, 13 mM glucose-6-phosphate, 2 mM NADP+, 10 units of glucose-6-phosphate dehydrogenase, 100 μM Compound 1.1 and tissue homogenate or liver cytosol at a protein concentration of 8.5 mg/ml. Reactions are incubated at 37° C. Aliquots are taken after 0 and 1 hour of incubation, and extracted with 60% methanol. The methanolic extracts are centrifuged at 14,000 rpm, and filtered prior to analysis by HPLC.

rat hepatocytes = assay: Activation of Compound 1.1 to Etoposide in rat hepatocytes; assay type: in vitro ADME
Method: Methods: Hepatocytes were prepared from fed Sprague-Dawley rats (250-300 g) according to the procedure of Berry and Friend (Berry, M. N., Friend, D. S. J. Cell Biol. 43, 506-520 (1969)) as modified by Groen (Groen, A. K. et al. Eur J. Biochem 122, 87-93 (1982)). Hepatocytes (75 mg wet weight/ml) were incubated in 1 ml Krebs-bicarbonate buffer containing 10 mM glucose, and 1 mg/ml BSA. Incubations were carried out in a 95% oxygen, 5% carbon dioxide atmosphere in closed, 50-ml Falcon tubes submerged in a rapidly shaking water bath (37° C.). A 10 mM stock solution of Compound 1.1 was prepared in methanol, and then diluted into the cell suspension or Krebs-bicarbonate buffer to yield a final concentration of 100 μM. […] The cell extracts in the acid layers were neutralized, and the intracellular prodrug metabolite content analyzed by reverse phase HPLC with use of a Beckman Ultrasphere ODS column (4.6×150 mm). The column was equilibrated with 20 mM potassium phosphate buffer, pH 6.3, and eluted with a gradient to 100% methanol. Detection was at 284 nm. Peaks on the chromatograms were identified by comparison to the retention times and spectra of standards of prodrug and parent compound.

[5] = system: human liver microsomes (CYP3A4, CYP1A2, CYP2C9); assay: Identification of the P450 isozyme involved in the activation (human microsomes with isozyme inhibitors); assay type: in vitro ADME; conditions: 0-100 μM inhibitor, 250 μM prodrug
Method: Prodrugs are evaluated for human microsome-catalyzed conversion to parent compound in the absence and presence of specific inhibitors of three major P450 isozymes: ketoconazole (CYP3A4), furafylline (CYP1A2), and sulfaphenazole (CYP2C9).
Methods: Reactions (0.5 ml @ 37° C.) consist of 0.2 M KH2PO4, 13 mM glucose-6-phosphate, 2.2 mM NADP^+, 1 unit of glucose-6-phosphate dehydrogenase, 0-2.5 mg/ml human microsomal protein (In Vitro Technologies, Inc.), 250 μM prodrug, and 0-100 μM P450 isozyme inhibitor. Reactions are stopped by addition of methanol to a concentration of 60%, filtered ([…]), and lyophilized. Samples are resuspended in HPLC buffer (10 mM phosphate pH 5.5, 2.5 mM octyl-triethyl-ammonium), loaded onto a YMC C8 HPLC column (250×4.6 mm), and eluted with a methanol gradient to 80%. Formation of parent drug is confirmed by co-elution with an authentic parent drug standard.

rat embryos in culture = rat embryos in culture (Teratology 39, 31-37 (1989)); cited from earlier work

T1 sequence (P08684 whole entry): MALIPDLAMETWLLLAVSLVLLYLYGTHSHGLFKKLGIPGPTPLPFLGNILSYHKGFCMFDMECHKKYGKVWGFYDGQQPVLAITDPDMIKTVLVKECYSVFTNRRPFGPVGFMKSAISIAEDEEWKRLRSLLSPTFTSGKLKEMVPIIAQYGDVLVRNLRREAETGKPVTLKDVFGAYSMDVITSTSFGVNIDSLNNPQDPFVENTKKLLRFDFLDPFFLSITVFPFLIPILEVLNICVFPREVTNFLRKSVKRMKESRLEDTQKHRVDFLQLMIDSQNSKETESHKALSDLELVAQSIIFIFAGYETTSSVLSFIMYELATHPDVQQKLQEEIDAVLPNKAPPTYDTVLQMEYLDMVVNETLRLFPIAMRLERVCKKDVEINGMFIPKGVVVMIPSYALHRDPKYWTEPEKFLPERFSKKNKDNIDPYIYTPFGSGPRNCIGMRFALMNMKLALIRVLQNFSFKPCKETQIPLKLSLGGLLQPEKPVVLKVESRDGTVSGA

## COc1cc(C2c3cc4c(cc3C(OC3OC5COC(C)OC5C(O)C3O)C3COC(=O)C23)OCO4)cc(OC)c1OP1(=O)OCCC(c2ccncc2)O1 (stereo not shown) [Compound 1.1, 4′-O-(2-oxo-4-pyridyl-1,3,2-dioxaphosphorinan-2-yl)-etoposide]
[1]
  rate of Etoposide phosphate formation: 386 nmoles Etoposide phosphate/nmole CYP3A4/h
[2]
  cytotoxicity (inhibition of cell colony formation): substantial reduction cytotoxic activity
[3]; in vivo, relative to free etoposide
  liver specificity: enhanced liver specificity
[3]; rat, oral or intravenous, compared to administration of free Etoposide
  area under the curve of Etoposide in liver: higher
[3]; rat, oral or intravenous, compared to free Etoposide
  levels of Etoposide in plasma: Reduced levels
[4]; 8.5 mg/ml protein, 37° C.
  activation in crude rat liver homogenate: depletion of the prodrug and formation of parent compound
[4]; kidney, brain, heart, stomach, spleen, muscle, lung, testis
  activation in other tissue homogenates: fails to result in appreciable activation
[4]; liver cytosol without microsomal P450 enzymes, 37° C.
  activation in liver cytosol: does not result in activation
Rat hepatocytes; Krebs-bicarbonate buffer without cells, 100 μM, 37° C.
  stability in cell-free incubations: stable
Rat hepatocytes; rat hepatocytes, 100 μM Compound 1.1, 2-hour time point
  intracellular levels of Etoposide: approximately 40 nmoles/gram of cells
Rat hepatocytes; rat hepatocytes, 100 μM, 37° C.
  activation to Etoposide phosphate and free Etoposide: activated to Etoposide

## CC(=O)N1CCN(c2ccc(OCC3COC(Cn4ccnc4)(c4ccc(Cl)cc4Cl)O3)cc2)CC1 (stereo not shown) [Ketoconazole, ketoconazole]
[5]
  inhibition of formation of parent drug by P450 isozyme inhibitor: inhibit the formation parent drug in a dose-dependent fashion
[5]; listed as ketoconozole
  inhibition of formation of parent drug by P450 isozyme inhibitor: inhibition of drug formation

## C=CC(=O)c1ccccc1 [Phenyl vinyl ketone]
Rat embryos in culture
  teratogenic activity: lacks teratogenic activity

## Cc1nc2c([nH]1)c(=O)n(C)c(=O)n2Cc1ccco1 [furafylline]
[5]
  inhibition of formation of parent drug by P450 isozyme inhibitor: no significant inhibition

## Nc1ccc(S(=O)(=O)Nc2ccnn2-c2ccccc2)cc1 [sulfaphenazole]
[5]
  inhibition of formation of parent drug by P450 isozyme inhibitor: no significant inhibition
